The test system of assay [1] is HDAC4. Nature of the assay: Nuclear export of Flag-HDAC4 in cardiomyocytes (NRVMs), immunofluorescence. The class given is cell-based, rat. Particulars: for Effect of kinase inhibitor on PE-induced nuclear export of HDAC4: adenoviral Flag-HDAC4, inhibitor pretreatment 30 min, PE 4 hrs, Stauro 500 nmol/l, KN93 5 μmol/l, KN62 10 μmol/l, AIPII-2 500 nmol/l, Bis 2.5 μmol/l, Gö6976 200 nmol/l, H89 1 μmol/l; for Nuclear export of HDAC4 induced by adrenergic agonist: Flag-HDAC4, PE or Iso 10 μmol/l, up to 4 hrs. The text has this:
(§1) Cardiomyocyte culture and adenoviral infection. NRVMs were isolated from 1-2 day Sprague Dawley rats. For adenovirus production, cDNAs encoding FLAG-tagged HDAC4 wild-type or a mutant containing alanines in place of serines 246, 467 and 632 (S/A) were subcloned into the pACCMV vector and co-transfected with pJM17 into 293 cells. Primary lysates were used to re-infect 293 cells and viral plaques were obtained using the agar overlay method. The production of adenoviral GFP-HDAC5 was described previously 18. NRVMs were infected 24 h after plating, starved for 4 h, and stimulated with PE or Iso for the indicated time period. In experiments with kinase inhibitors, NRVMs were pretreated with the inhibitor 30 min prior stimulation. For assessing cardiomyocyte hypertrophy, NRVMs were starved for 24 h and stimulated with PE for another 24 hrs. Subcellular localization of Flag-HDAC4 and cardiomyocyte hypertrophy, as assessed by sarcomeric organization, was determined by indirect immunofluorescence.
(§2) Indirect Immunofluorescence. COS cells were grown on glass coverslips, fixed in paraformaldehyde (4%), permeabilized in 0.1% Triton-X-100 and blocked in PBS containing goat serum (5%). Primary antibodies against FLAG (monoclonal or rabbit; Sigma), Myc (polyclonal, A-14; Santa Cruz), or HA (polyclonal, Y-11; Santa Cruz) were used at a dilution of 1:200. Secondary antibodies conjugated to either fluoresceine or Texas Red (Vector Laboratories) were also used at a dilution of 1:200. Staining of NRVMs for sarcomeres was performed with an antibody directed against sarcomeric α-actinin (Sigma). All images were captured at a magnification of ×40.

Assay [2] concerns MEF2. Nature of the assay: Reporter assay of endogenous MEF2 activity (3xMEF2-Luc) in NRVMs. Particulars: ionomycin 0.25 μmol/l; for Effect on ionomycin-induced increase of endogenous MEF2 activity: NRVMs pretreated 30 min, Gö6976 200 nmol/l, KN93 2.5 μmol/l, KN62 5 μmol/l, CSA 1 μmol/l. The assay is classed as cell-based, rat. How it is done:
Endogenous MEF2 activity in NRVMs. One day after plating, a MEF2 dependent luciferase reporter (3xMEF2-Luc)56, carrying three MEF2-DNA binding sites, was transfected into NRVMs using Lipofectamine plus (Invitrogen; Carlsbad, Calif.). To control for transfection efficiency NRVMs were cotransfected with a β-galactosidase reporter plasmid (pCMV-lacZ). Twenty-four hours after transfection, NRVMs were starved for 24 h, pretreated with kinase inhibitors or cyclosporine for 30 min and stimulated with ionomycin for 24 h. Luciferase and β-galactosidase levels were quantified employing the Luciferase Assay Kit (Promega) and the FluoReporter Kit (Molecular probes), respectively.

Assay [3] concerns HDAC5. Nature of the assay: Nuclear export of GFP-HDAC5 in cardiomyocytes (NRVMs). Particulars: PE 4 hrs. The assay is classed as cell-based, rat.
Text: as §1
Indirect Immunofluorescence. COS cells were grown on glass coverslips, fixed in paraformaldehyde (4%), permeabilized in 0.1% Triton-X-100 and blocked in PBS containing goat serum (5%). Primary antibodies against FLAG (monoclonal or rabbit; Sigma), Myc (polyclonal, A-14; Santa Cruz), or HA (polyclonal, Y-11; Santa Cruz) were used at a dilution of 1:200. […]

In assay [4] the test system is neonatal rat ventricular myocytes (NRVMs). Nature of the assay: Cardiomyocyte hypertrophy in NRVMs. The class given is cell-based. The conditions noted are these: data not shown.
Text: as §1

For assay [5], the system named is HDAC4-GFP. The assay is described as follows: Cellomics high content assay, nuclear localization of HDAC4-GFP in COS cells transfected with activated CaMKII. Particulars: COS cells transfected with HDAC4-GFP and CaMKII; concentration range; fixed at 48 hrs; EC50 only in FIG. 12. The class given is cell-based. How it is done: The plates are incubated at room temperature for 60 minutes.

In assay [6] the test system is HDAC4. Nature of the assay: Subcellular localization of HDAC4 in Cos cells with active CaMKIIδB mutants, leptomycin B treatment. The assay is classed as cell-based. Particulars: 12 hours. The procedure:
as §2, with “Cell culture and transfection assays. COS cells were maintained in DMEM with fetal bovine serum (10%), L-glutamine (2 mM), and penicillin-streptomycin. Transfection of COS cells was performed with Fugene 6 (Roche Molecular Biochemicals) according to manufacturer's instructions. Indirect” for “Indirect”

Entries after “also recorded” stand apart in the source; their conditions may differ.

The text below walks through data of patent US7863414B2, “Methods of treatment and uses for CaMKII and its interaction with HDACs and calpain” (The Board of Regents of the University of Texas Systems, priority 2005, dated 2011).

Consider `Cn1c2ccccc2c2c3c(c4c5ccccc5n(CCC#N)c4c21)C(=O)NC3` [Gö6976], for which the “Effect of kinase inhibitor on PE-induced nuclear export of HDAC4” value (“Effect of kinase inhibitor” below) in assay [1] is listed as “did not affect”. Besides, the “Effect on ionomycin-induced increase of endogenous MEF2 activity” value (“Effect on ionomycin-induced increase” for short) in assay [2] was “did not affect”.

For the molecule `O=S(=O)(NCCNC/C=C/c1ccc(Br)cc1)c1cccc2cnccc12` [H89], the “Effect of kinase inhibitor” value in assay [1] is reported as “did not affect”.

For `C[C@H](CCC(=O)O)C[C@H](C)C[C@H](C)C(=O)/C=C(\O)[C@H](C)C[C@H](C)C/C=C/[C@@H](C)[C@@H](O)[C@@H](C)[C@@H](O)C[C@@H]1CC[C@@](C)([C@H]2CC[C@@](C)([C@@H](C)O)O2)O1` [Ionomycin, ionomycin], the “Endogenous MEF2 activity (3xMEF2-Luc) after stimulation” value in assay [2] (NRVMs) is listed as “doubled”.

Take `CN([C@@H](Cc1ccc(OS(=O)(=O)c2cccc3cnccc23)cc1)C(=O)N1CCN(c2ccccc2)CC1)S(=O)(=O)c1cccc2cnccc12` [KN62]: the “Effect of kinase inhibitor” value in assay [1] is “markedly reduced; also recorded: effective in blocking”. The “Effect on ionomycin-induced increase” value in assay [2] is listed as “blocked”.

Consider `COc1ccc(S(=O)(=O)N(CCO)c2ccccc2CN(C)C/C=C/c2ccc(Cl)cc2)cc1` [KN93], for which the “Effect of kinase inhibitor” value in assay [1] was “markedly reduced; also recorded: effective in blocking”. In addition, the “Effect on PE-induced nuclear export of HDAC5” value in assay [3] (KN93 5 μmol/l pretreatment) was “not affected; also recorded: not blocked”. The “Effect on ionomycin-induced increase” value in assay [2] is “blocked”.

Consider `CN(C)CCCn1cc(C2=C(c3c[nH]c4ccccc34)C(=O)NC2=O)c2ccccc21` [bisindolylmaleimide I], for which, in assay [1], the “Effect of kinase inhibitor” value is on record as “did not affect”.

As for `CC(C)NCC(O)c1ccc(O)c(O)c1` (centres unmarked) [isoprenaline], in assay [4], the Hypertrophic growth response entry is on record as “evoked a hypertrophic growth response”. Further, the “Nuclear export of HDAC4 induced by adrenergic agonist” value in assay [1] was “time-dependent nuclear export”; in assay [1] (listed as Iso), “time-dependently induced nuclear export”.

With `CCC(=C/[C@H](C)C/C=C/C(C)=C/[C@@H](C)C(=O)[C@@H](C)[C@H](O)[C@@H](C)C/C(C)=C/C(=O)O)/C=C/[C@@H]1OC(=O)C=C[C@@H]1C` [leptomycin B], the “Dose response of HDAC4-GFP nuclear localization (Nuc-Cyto)” value in assay [5] is listed as “smooth dose response curves”. For the same molecule, the “Nuclear accumulation of HDAC4 after leptomycin B” value in assay [6] (absence or presence of constitutive nuclear active CaMKIIδb T287D/S332A) is listed as “completely accumulated in the nucleus; also recorded: accumulates in the nucleus”; in assay [6] (presence of cytosolic active CaMKIIδb T287D/K328N/K329N or CaMKIIδb T287D) it was “no accumulation”.

As to `CNC[C@H](O)c1cccc(O)c1` [phenylephrine], in assay [4], the Hypertrophic growth response entry was “evoked a hypertrophic growth response”. Also, the “Nuclear export of HDAC4 induced by adrenergic agonist” value in assay [1] is listed as “time-dependent nuclear export”; in assay [1] (listed as PE) it was “time-dependently induced nuclear export”. Besides, the “Nuclear export of HDAC5 in response to agonist” value in assay [3] was “exported”.

Take `CN[C@@H]1C[C@H]2O[C@@](C)([C@@H]1OC)n1c3ccccc3c3c4c(c5c6ccccc6n2c5c31)C(=O)NC4` [staurosporine]: the “Dose response of HDAC4-GFP nuclear localization (Nuc-Cyto)” value in assay [5] is listed as “smooth dose response curves”.

Take “autoctamide-2 related inhibitory peptide II [AIPII-2]”: the “Effect of kinase inhibitor” value was “effective in blocking” in assay [1] and “markedly reduced” in assay [1] (listed as AIPII).
